“Also recorded” adds a separate entry of the source.
Assays:
[1] = tested on: transient focal cerebral ischemia induced by Middle Cerebral Artery Occlusion (MCAO); test: Animal cerebral infarct assay: two-hour Middle Cerebral Artery Occlusion (MCAO) with reperfusion; format: in vivo, rat; details: for total infarct volume relative to control animals: administered (I.V.) at the time of MCAO; for total ischemic damage relative to control animals: I.V. at the time of MCAO; for reduction of infarct volume: administered at reperfusion; for tissue edema relative to controls / total ischemic damage relative to controls / total infarct volume relative to controls: administered at the time of reperfusion; for edema relative to control animals: at the time of MCAO
Source text: This assay is used to assess the efficacy of the test agents in protecting the brain against necrosis following cerebral ischemia induced in rats. Middle Cerebral Artery Occlusion (MCAO) is a widely used technique to induce transient focal cerebral ischemia in animal models. […] Furthermore, this model accurately represents the involvement of middle cerebral artery (MCA), the most affected vessel in human stroke, and also allows reperfusion as it happens in humans. MCAO by a two-hour occlusion is used to produce the maximum size of cortical infarction without increased mortality at twenty-four hours. Male Wistar rats (Hadan, Ind.) weighing 300-350 g were allowed free access to water and commercial rodent diet under standard laboratory conditions. The room temperature was maintained at 20-23° C. and room illumination was on a 12/12-hour light/dark cycle. The rats were acclimatized to the laboratory environment 5 to 7 days prior to the study. Before surgery, the animals were fasted overnight, but had free access to water. The rats were anesthetized with 3.0% isoflurane (Aerrane, Front Dodge, Iowa) in […] and the animal's neck was shaved and sterilized before the operation. The animals were subjected to two hours MCAO using a modified intraluminal filament technique. A midline incision on the ventral part of the neck was made to expose external and internal carotid arteries. The right external and common carotid arteries were ligated by a suture (silk 5/0, Carlisle Laboratories, Farmers Branch, Tex.) and the right internal artery was temporarily ligated by a microvascular clip (Fine Science Tool Inc., Foster City, Calif.). A small incision was made in the common carotid artery and a nylon filament, its tip rounded by heating, prepared from a fishing line (Stren Fishing Lines, Wilmington, Del.) was inserted from the right common carotid artery. The filament was advanced into the internal carotid artery 18-20 mm from the point of bifurcation of internal and external arteries and a suture was tightly ligated around the filament. Two hours post occlusion, the animals were re-anesthetized to allow reperfusion for the remaining of the experiment by removal of the filament. The anesthetized animal were placed on a stereotaxic apparatus (Harvard Apparatus, S. Natick, Mass.). Anesthesia was maintained by inhalation of 3.0% isoflurane in […] throughout the entire procedure. The scalp was shaved and sterilized prior to surgery. A midline sagittal incision about 3 cm long was made slightly behind the eyes to expose the skull. The skull was scraped with a rounded end spatula to remove periosteal connective tissue. A bur hole was placed 1.5 mm lateral, 1 mm posterior to the left of the bregma to mark the left lateral ventricle. A brain infusion cannula (ALZET CO. Palo Alto, Calif.) was inserted 4 mm deep into the hole. The desired depth was adjusted by attaching spacers to the cannula. The cannula was attached to a 4-cm silastic catheter (Helix Medical Inc.) fixed in place with dental cement (Ketac-cement, Norristown, Pa.). The catheter was either attached to a primed osmotic pump placed subcutaneously between the shoulder blades for permanent infusion or to a syringe for a short infusion. Anesthesia was maintained by inhalation of 3.0% isoflurane in […] throughout the entire procedure. The exterior site of the right femoral vein was shaved and sterilized prior to surgery. A 3 cm incision was made in the right groin region and the femoral vein was isolated. A small incision was made on the femoral vein temporarily ligated with a microvascular clip to introduce and advance a polyethylene (PE-50) catheter (Becton. Dickinson and Co., Sparks, Md.). The catheter was secured in place with suture (silk 5/0, Carlisle Laboratories, Farmers Branch, Tex.). The other end of the catheter was attached to a syringe filled with the heparinized saline for the bolus injection. […]

[2] = tested on: congestive heart failure (CHF); test: Model of congestive heart failure: permanent ligation of the left coronary artery (Example 6); format: in vivo, rat; details: after permanent ligation of the left coronary artery
[3] = Experiments performed in support of the invention: synergy of hesperetin with tocopherols (test not specified)
[4] = oral gavage pre-MCAO, dose not given
[5] = listed as gamma-tocopherol enriched composition
[6] = listed as gamma-tocopherol enriched tocopherol composition
[7] = oral gavage pre-MCAO (3 hours), 10 mg/kg
[8] = listed as gamma-tocopherol metabolite enriched composition

Which “reduction of infarct size” value ([1]; IV, 0.60 mg/kg) does the source give for Cc1cc(O)cc2c1O[C@](C)(CCC[C@H](C)CCC[C@H](C)CCCC(C)C)CC2 (relative stereo) [delta-tocopherol, [2R-[2R*(4R*,8R*)]]-3,4-dihydro-2,8-dimethyl-2-(4,8,12-trimethyltridecyl)-2H-1-benzo-pyran-6-ol] here?
Its value is 52%.

And the “total infarct volume relative to control animals” value [1]?
Its value is “reduce total infarct size”.

And the “reduction of infarct size” value [1, 4]?
The value was 48%.

And the “reduction of total infarct volume compared with alpha-tocopherol” value ([1]; rat, in vivo)?
The value was “more effective”.

What does the source list for C[C@H](CS)C(=O)N1CCC[C@H]1C(=O)O [captopril, 1-[(2S)-3-mercapto-2-methylpropionyl]-L-proline]?
heart weight [2]: reduced heart weight; left ventricular systolic pressure (LVSP) [2]: reduced LVSP

Which “synergy with gamma-tocopherol and delta-tocopherol” value [3] does the source give for COc1ccc([C@@H]2CC(=O)c3c(O)cc(O)cc3O2)cc1O [hesperetin, (S)-2,3-dihydro-5,7-dihydroxy-2-(3-hydroxy-4-methoxyphenyl)-4H-1benzopyran-4-one] here?
The value was “act synergistically”.

Which results are given for Cc1c(C)c2c(c(C)c1O)CC[C@@](C)(CCC[C@H](C)CCC[C@H](C)CCCC(C)C)O2 (relative stereo) [alpha-tocopherol, [2R-2R*(4R*,8R*)]-3,4-dihydro-2,5,7,8-tetramethyl-2-(4,8,12-trimethyltridecyl)-2H-1-benzopyran-6-ol, reference compound]?
reduction of infarct size ([1]; 6 mg/kg at MCAO (IV)): 42%; reduction of infarct size [1, 4]: 43%

What does the source list for Cc1c(O)cc2c(c1C)OC(C)(CCCC(C)CCCC(C)CCCC(C)C)CC2 (stereo not shown) [gamma-tocopherol, 3,4-dihydro-2,7,8-trimethyl-2-(4,8,12-trimethyltridecyl)-2H-1-benzyopyran-6-ol]?
reduction of infarct size ([1]; 6 mg/kg at MCAO (IV)): 82%; total ischemic damage relative to control animals [1]: significantly reduced; reduction of infarct size ([1]; IV, 0.6 mg/kg, at MCAO): 81%; total infarct volume relative to control animals [1, 5]: reduce total infarct size; total infarct volume relative to control animals [1, 6]: significantly reduced; also recorded: reduce total infarct; reduction of infarct volume ([1]; 10 mg/kg): 70%; tissue edema relative to controls [1]: reduction; total ischemic damage relative to controls [1]: reduction; total infarct volume relative to controls [1, 5]: reduce total infarct size; also recorded: reduction; total infarct volume relative to controls [1, 6]: reduce total infarct; reduction of tissue edema compared with alpha- or delta-tocopherol ([1]; at the same concentration): more effective; reduction of total infarct volume compared with alpha- or delta-tocopherol ([1]; at the same concentration): more effective; edema relative to control animals [1]: significantly reduced; mean reduction of infarct volumes ([1]; intraperitoneal, 10-20 mg/kg, at MCAO or 3 hours post-reperfusion): 20-57%; reduction of infarct size / infarct volume ([1]; oral gavage 3 hours pre-MCAO, 4 mg/kg): 53%; reduction of infarct size [1, 7]: 77%

Which results are given for Cc1c(O)cc2c(c1C)OC(C)(CCC(=O)O)CC2 (stereo not shown) [gamma-CEHC, 6-hydroxy-2,7,8-trimethylchroman-2-propanoic acid]?
total ischemic damage relative to control animals [1]: significantly reduced; decrease of neuronal damage ([1]; IV at MCAO, drug range 0.1-5 mg/kg): 50-65%; total infarct volume relative to control animals [1]: reduce total infarct size; also recorded: significantly reduced; total infarct volume relative to control animals [1, 8]: reduce total infarct; reduction of infarct volume ([1]; 10 mg/kg): 52%; tissue edema relative to controls [1]: reduction; total infarct volume relative to controls [1]: reduce total infarct size; total ischemic damage relative to controls [1]: reduction; total infarct volume relative to controls [1, 8]: reduction; also recorded: reduce total infarct; edema relative to control animals [1]: reduced tissue edema

With Cc1cc(O)c(C)c2c1OC(C)(CCCC(C)CCCC(C)CCCC(C)C)CC2 (stereo not drawn) [beta-tocopherol, 3,4-dihydro-2,5,8-trimethyl-2-(4,8,12-trimethyltridecyl)-2H-1-benzopyran-6-ol] as the compound, how does the total infarct size ([1]; gavage, three hours pre-MCAO) read?
Its total infarct size is “reduce total infarct size”.

What about the “reduction of infarct size” value [1, 7] of the same compound?
Its value is 76%.

Reference: patent publication US20020132845A1, “Compositions and methods for the prevention and treatment of tissue ischemia” (priority 2000, published 2002)
